The text below walks through data of patent publication US9938261B2, “Heterocyclic compounds and methods of use thereof” (AMBIT BIOSCIENCES CORPORATION, priority 2011, dated 2018).

Where two headings read alike, the source gives them in different places.

In test [1] the target is T1, KIT (Homo sapiens, UniProt P10721).
T1 construct: made in house
Nature of the test: Competition binding assay, KIT Kd. Put shortly: (§1)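 Phage-fused or HEK-293/DNA-tagged kinase + ligand-coated streptavidin beads + compound, 1 h RT with shaking. Wash, elute with free ligand 30 min RT, qPCR of eluted kinase. Kd: 11-point 3-fold series.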

For test [2], the target named is T2, PDGFRβ (Homo sapiens, UniProt P09619).
T2 construct: made in house
As to the kind of experiment: Competition binding assay, PDGFRβ Kd. The method in brief: as §1

Test [3] deals with kinase panel containing either 386 or 392 distinct kinases. Nature of the test: Kinase selectivity score S10 from competition binding panel. As to the method: Competition binding assays used herein were developed, validated and performed as described in Fabian et al., Nature Biotechnology 2005, 23, 329-336. Kinases were produced as fusions to T7 phage (See, Fabian et al. or WO04/015142) or alternatively, the kinases were expressed in HEK-293 cells and subsequently tagged with DNA for PCR detection (See, WO08/005310). For the binding assays, streptavidin-coated magnetic beads were treated with biotinylated affinity ligands for 30 min at room temperature to generate affinity resins. The liganded beads were blocked with excess biotin and washed with blocking buffer (SeaBlock (Pierce), 1% BSA, 0.05% Tween 20, 1 mM DTT) to remove unbound ligand and to reduce non-specific binding. Binding reactions were assembled by combining kinase, liganded affinity beads, and test compounds in 1× binding buffer (20% SeaBlock, 0.17×PBS, 0.05% Tween 20, 6 mM DTT). Test compounds were prepared as 100× stocks in DMSO and diluted into the aqueous environment. Kds were determined using an eleven point threefold serial dilutions. DMSO or control compounds were was added to control assays lacking a test compound. Primary screen assays were performed in polypropylene 384-well plates in a final volume of 20-40 μL, while Kd determinations were performed in polystyrene 96-well plates in a final volume of 135 μL. The assay plates were incubated at room temperature with shaking for 1 hour to allow the binding reactions to reach equilibrium, and the affinity beads were washed extensively with wash buffer (1×PBS, 0.05% Tween 20) to remove unbound protein. The beads were then resuspended in elution buffer (1×PBS, 0.05% Tween […] non-biotinylated affinity ligand) and incubated at room temperature with shaking for 30 min. The kinase concentration in the eluates was measured by quantitative PCR.
A selectivity score (S10) is a quantitative measure of selectivity of a compound against a panel of kinases. An S10 was calculated for a compound by dividing the number of kinases found to have a percent of control (DMSO) less than 10 by the total number of distinct kinases tested (excluding mutant variants). Percent of control (POC) is calculated by subtracting the signal of the control compound (POC=0) from the signal of the test compound and dividing the outcome by the signal of DMSO (POC=100) minus the signal of the control compound. For the compounds disclosed herein, S10 scores were obtained by testing the compounds at 10 μM concentration in a kinase panel containing either 386 or 392 distinct kinases.

Test [4] deals with T3, CSF1R (Homo sapiens, UniProt P07333). As to the kind of experiment: Competition binding assay, CSF1R Kd. Further details: made in house. Put shortly:
as §1

Test [5] addresses T3, CSF1R. As to the kind of experiment: HEK293 CSF1R phosphorylation MSD assay. Format: cell-based. The conditions noted are these: read-out: HEK293 pCSF1R M-CSF MSD:IC50. Also noted: expressed in transfected cells; host or cells: HEK293. Put shortly: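 HEK293 cells expressing CSF1R-FKBP were pretreated 2 h at 37° C with 9 half-log concentrations of compound (0.5% DMSO final), then stimulated 5 min with 50 ng/mL human M-CSF. Lysates captured on biotin-FK506 plates; phosphotyrosine detected by MSD electrochemiluminescence. IC50 versus DMSO, averaged from duplicate plates.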

Setting [6] is: 10 μM, panel of 386 or 392 distinct kinases.
Setting [7] is: HEK293 cells, M-CSF stimulated CSF1R phosphorylation, MSD.
[8] abbreviates: compounds at 10 μM, 386 or 392 distinct kinases.
Setting [9] is: 2 h compound, human M-CSF 50 ng/mL for 5 min.

T3 sequence (P07333 20-972): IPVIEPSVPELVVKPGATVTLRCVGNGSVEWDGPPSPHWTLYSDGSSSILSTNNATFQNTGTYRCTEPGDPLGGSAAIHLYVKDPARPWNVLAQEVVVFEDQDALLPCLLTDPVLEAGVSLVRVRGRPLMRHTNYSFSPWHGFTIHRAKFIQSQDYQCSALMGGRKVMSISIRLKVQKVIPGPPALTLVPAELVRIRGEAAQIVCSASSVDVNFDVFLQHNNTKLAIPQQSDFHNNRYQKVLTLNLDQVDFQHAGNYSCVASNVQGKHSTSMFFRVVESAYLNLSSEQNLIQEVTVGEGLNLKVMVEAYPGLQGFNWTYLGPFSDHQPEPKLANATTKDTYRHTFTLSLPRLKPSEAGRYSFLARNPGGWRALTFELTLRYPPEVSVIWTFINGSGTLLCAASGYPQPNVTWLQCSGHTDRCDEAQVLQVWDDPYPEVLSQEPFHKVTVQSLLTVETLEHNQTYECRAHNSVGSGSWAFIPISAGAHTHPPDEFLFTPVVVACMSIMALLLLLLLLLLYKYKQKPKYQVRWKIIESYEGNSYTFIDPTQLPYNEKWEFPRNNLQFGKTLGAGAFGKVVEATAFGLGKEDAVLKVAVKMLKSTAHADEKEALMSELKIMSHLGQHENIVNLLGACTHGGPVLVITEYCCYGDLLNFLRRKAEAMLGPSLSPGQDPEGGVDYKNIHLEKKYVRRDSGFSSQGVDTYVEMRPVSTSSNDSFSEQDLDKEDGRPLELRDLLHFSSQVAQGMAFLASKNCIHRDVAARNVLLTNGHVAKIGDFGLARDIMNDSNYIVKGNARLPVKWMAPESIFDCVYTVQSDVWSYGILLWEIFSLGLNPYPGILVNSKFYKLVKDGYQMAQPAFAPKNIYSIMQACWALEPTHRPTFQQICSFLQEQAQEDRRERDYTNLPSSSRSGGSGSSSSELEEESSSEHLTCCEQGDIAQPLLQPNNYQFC
T1 sequence (P10721 26-976): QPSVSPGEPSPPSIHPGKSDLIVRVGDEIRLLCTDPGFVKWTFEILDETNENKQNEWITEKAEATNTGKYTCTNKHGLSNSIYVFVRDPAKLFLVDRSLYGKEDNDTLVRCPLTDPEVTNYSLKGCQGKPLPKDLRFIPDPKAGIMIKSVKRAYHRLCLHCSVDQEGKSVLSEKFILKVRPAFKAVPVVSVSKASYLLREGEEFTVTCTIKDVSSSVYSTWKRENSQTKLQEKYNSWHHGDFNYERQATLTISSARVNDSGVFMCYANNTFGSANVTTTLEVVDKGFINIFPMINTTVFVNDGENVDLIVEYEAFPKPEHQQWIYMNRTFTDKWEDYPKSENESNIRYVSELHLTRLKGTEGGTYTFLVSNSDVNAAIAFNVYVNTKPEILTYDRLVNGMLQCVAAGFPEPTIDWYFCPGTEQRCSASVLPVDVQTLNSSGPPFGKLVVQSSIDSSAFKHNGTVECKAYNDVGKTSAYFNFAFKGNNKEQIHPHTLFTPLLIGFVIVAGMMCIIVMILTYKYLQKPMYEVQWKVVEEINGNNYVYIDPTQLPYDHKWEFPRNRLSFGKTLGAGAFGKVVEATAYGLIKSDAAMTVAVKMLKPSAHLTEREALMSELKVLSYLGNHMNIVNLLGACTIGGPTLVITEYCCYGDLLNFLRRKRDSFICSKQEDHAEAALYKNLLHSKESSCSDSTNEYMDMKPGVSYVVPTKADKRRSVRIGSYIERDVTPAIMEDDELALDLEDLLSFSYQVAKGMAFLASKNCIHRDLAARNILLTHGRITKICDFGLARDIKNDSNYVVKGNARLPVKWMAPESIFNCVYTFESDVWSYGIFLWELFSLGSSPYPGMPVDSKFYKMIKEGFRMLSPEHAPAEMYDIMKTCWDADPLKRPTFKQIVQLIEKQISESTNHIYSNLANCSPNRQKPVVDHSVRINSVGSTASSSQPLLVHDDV
T2 sequence (P09619 33-1106): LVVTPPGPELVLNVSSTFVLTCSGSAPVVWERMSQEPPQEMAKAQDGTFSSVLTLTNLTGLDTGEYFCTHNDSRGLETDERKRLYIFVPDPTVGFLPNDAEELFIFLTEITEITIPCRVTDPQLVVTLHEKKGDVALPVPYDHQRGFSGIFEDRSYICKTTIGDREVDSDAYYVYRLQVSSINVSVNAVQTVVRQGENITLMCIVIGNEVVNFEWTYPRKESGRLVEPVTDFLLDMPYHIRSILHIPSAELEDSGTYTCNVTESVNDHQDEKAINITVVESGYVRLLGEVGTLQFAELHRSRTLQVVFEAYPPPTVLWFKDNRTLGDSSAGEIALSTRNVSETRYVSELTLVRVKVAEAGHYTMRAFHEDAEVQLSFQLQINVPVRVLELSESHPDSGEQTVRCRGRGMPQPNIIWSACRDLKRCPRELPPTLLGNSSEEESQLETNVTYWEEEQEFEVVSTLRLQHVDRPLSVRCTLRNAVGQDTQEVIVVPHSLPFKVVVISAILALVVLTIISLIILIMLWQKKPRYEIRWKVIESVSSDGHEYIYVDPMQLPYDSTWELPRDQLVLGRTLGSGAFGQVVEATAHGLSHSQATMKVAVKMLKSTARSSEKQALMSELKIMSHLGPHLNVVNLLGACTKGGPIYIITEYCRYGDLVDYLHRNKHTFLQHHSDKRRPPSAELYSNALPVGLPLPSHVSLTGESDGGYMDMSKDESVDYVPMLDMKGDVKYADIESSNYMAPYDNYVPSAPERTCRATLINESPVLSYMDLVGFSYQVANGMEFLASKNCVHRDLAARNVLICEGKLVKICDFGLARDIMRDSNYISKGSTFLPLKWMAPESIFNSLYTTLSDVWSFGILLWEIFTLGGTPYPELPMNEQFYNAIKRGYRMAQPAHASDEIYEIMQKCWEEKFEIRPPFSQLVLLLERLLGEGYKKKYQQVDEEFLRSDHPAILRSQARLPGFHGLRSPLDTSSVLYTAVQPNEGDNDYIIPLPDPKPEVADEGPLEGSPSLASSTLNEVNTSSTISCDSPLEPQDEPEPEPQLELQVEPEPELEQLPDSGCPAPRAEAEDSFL

On to `Fc1cnc2c(c1)ncn2Cc1ccc2nc(N[C@@H]3CCCC[C@@H]3Cl)sc2c1` [Example 219, N-((1R,2S)-2-chlorocyclohexyl)-6-((6-fluoro-3H-imidazo[4,5-b]pyridin-3-yl)methyl)benzo[d]thiazol-2-amine], for which the values for the Kd in test [1] (competition binding), in test [2] (competition binding) and in test [4] (competition binding) were 100 to 500 nM, ≤ 50 nM and 5 to 20 nM, respectively. In addition, the “Kinase specificity S(10)” value in test [3] (setting [6]) is “B (0.01<B≤0.02)”. Besides, in test [5] (setting [7]), the IC50 (as a rule, the concentration at which inhibition is half-maximal) lay within 50 to 200 nM.

For the molecule `CS(=O)(=O)c1cnc2c(c1)ncn2Cc1ccc2nc(N[C@@H]3CCCC[C@H]3O)sc2c1` [Example 74, (1R,2R)-2-((6-((6-(methylsulfonyl)-3H-imidazo[4,5-b]pyridin-3-yl)methyl)benzo[d]thiazol-2-yl)amino)cyclohexanol], the dissociation constant Kd (usually the concentration at which binding is half-saturated) is 100 to 500 nM in test [1], 50 to 500 nM in test [2] and 5 to 20 nM in test [4]. The “Kinase specificity S(10)” value in test [3] (setting [8]) is given as “B (0.01<B≤0.02)”. The half-maximal inhibitory concentration (IC50) in test [5] (setting [9]) lay in the range of 50 to 200 nM.

For `CC(=NO)c1ccn2c(Cc3ccc4nc(N[C@@H]5CCCC[C@H]5O)sc4c3)cnc2c1` [Example 202, 1-(3-((2-(((1R,2R)-2-hydroxycyclohexyl)amino)benzo[d]thiazol-6-yl)methyl)imidazo[1,2-a]pyridin-7-yl)ethanone oxime], the equilibrium dissociation constant (Kd) in test [1] (competition binding) lay within 100 to 500 nM; in test [2] (competition binding) it was 50 to 500 nM; in test [4] (competition binding), 5 to 20 nM. Moreover, the “Kinase specificity S(10)” value in test [3] (setting [6]) was “A (A≤0.01)”. The half-maximal inhibitory concentration (IC50) in test [5] (setting [7]) is 50 to 200 nM.

Take `N#Cc1cc(F)c2c(c1)ncn2Cc1ccc2nc(N[C@@H]3CCCC[C@H]3O)sc2c1` [Example 206, 7-fluoro-1-((2-(((1R,2R)-2-hydroxycyclohexyl)amino)benzo[d]thiazol-6-yl)methyl)-1H-benzo[d]imidazole-5-carbonitrile]: the figures for the Kd in test [1] (competition binding), in test [2] (competition binding) and in test [4] (competition binding) were 100 to 500 nM, 50 to 500 nM and 5 to 20 nM, respectively. The “Kinase specificity S(10)” value in test [3] (setting [6]) was “A (A≤0.01)”. Moreover, the IC50 in test [5] (setting [7]) is 50 to 200 nM.

For the molecule `C=Cc1cnc2c(c1)ncn2Cc1ccc2nc(N[C@@H]3CCCC[C@H]3O)sc2c1` [Example 98, (1R,2R)-2-((6-((6-vinyl-3H-imidazo[4,5-b]pyridin-3-yl)methyl)benzo[d]thiazol-2-yl)amino)cyclohexanol], the dissociation constant Kd was ≤ 100 nM in test [1], ≤ 50 nM in test [2] and 5 to 20 nM in test [4]. In addition, the “Kinase specificity S(10)” value in test [3] (setting [8]) was “B (0.01<B≤0.02)”. Moreover, in test [5] (setting [9]), the half-inhibitory concentration (IC50) was ≤ 50 nM.

`COc1cc2ncn(Cc3ccc4nc(N[C@@H]5CCCC[C@H]5O)oc4c3)c2cc1OC` [Example 34, (1R,2R)-2-((6-((5,6-dimethoxy-1H-benzo[d]imidazol-1-yl)methyl)benzo[d]oxazol-2-yl)amino)cyclohexanol]: the results for the Kd in test [1], in test [2] and in test [4] were 100 to 500 nM, 50 to 500 nM and 5 to 20 nM, respectively. In addition, the “Kinase specificity S(10)” value in test [3] (setting [8]) was “C (C>0.02)”. Moreover, the concentration for half-maximal inhibition (IC50) in test [5] (setting [9]) lay within 50 to 200 nM.

As for `O=C(O)c1cnc2c(c1)ncn2Cc1ccc2nc(N[C@@H]3CCCC[C@H]3O)sc2c1` [Example 81, 3-((2-(((1R,2R)-2-hydroxycyclohexyl)amino)benzo[d]thiazol-6-yl)methyl)-3H-imidazo[4,5-b]pyridine-6-carboxylic acid], the Kd in test [1] was in the range of 100 to 500 nM; in test [2], 50 to 500 nM; in test [4], 20 to 50 nM. Moreover, the “Kinase specificity S(10)” value in test [3] (setting [8]) is “B (0.01<B≤0.02)”. Also, the IC50 in test [5] (setting [9]) is > 500 nM.

On to `O[C@@H]1Cc2ccccc2[C@H]1Nc1nc2ccc(Cn3cnc4cccnc43)cc2s1` [Example 46, (1R,2R)-1-((6-((3H-imidazo[4,5-b]pyridin-3-yl)methyl)benzo[d]thiazol-2-yl)amino)-2,3-dihydro-1H-inden-2-ol], for which the dissociation constant Kd in test [1] is 100 to 500 nM; in test [2], ≤ 50 nM; in test [4], ≤ 5 nM. For the same molecule, the “Kinase specificity S(10)” value in test [3] (setting [8]) is on record as “B (0.01<B≤0.02)”. In addition, the half-maximal inhibitory concentration (IC50) in test [5] (setting [9]) is 50 to 200 nM.

Take `C#Cc1cnc2c(c1)ncn2Cc1ccc2nc(N[C@@H]3CCCC[C@H]3O)sc2c1` [Example 96, (1R,2R)-2-((6-((6-ethynyl-3H-imidazo[4,5-b]pyridin-3-yl)methyl)benzo[d]thiazol-2-yl)amino)cyclohexanol]: the dissociation constant (Kd) in test [1] is ≤ 100 nM; in test [2], ≤ 50 nM; in test [4], 5 to 20 nM. Besides, the “Kinase specificity S(10)” value in test [3] (setting [8]) was “C (C>0.02)”. Moreover, the IC50 in test [5] (setting [9]) is ≤ 50 nM.

Consider `O[C@@H]1CCCC[C@H]1Nc1nc2ccc(Cn3cnc4cc(Cl)cnc43)cc2s1` [Example 55, (1R,2R)-2-((6-((6-chloro-3H-imidazo[4,5-b]pyridin-3-yl)methyl)benzo[d]thiazol-2-yl)amino)cyclohexanol], for which the values for the Kd in test [1], in test [2] and in test [4] were ≤ 100 nM, ≤ 50 nM and 5 to 20 nM, respectively. Moreover, in test [3] (setting [8]), the “Kinase specificity S(10)” value was “B (0.01<B≤0.02)”. For the same molecule, in test [5] (setting [9]), the IC50 is ≤ 50 nM.

On to `CSc1cnc2c(c1)ncn2Cc1ccc2nc(N[C@@H]3CCCC[C@H]3O)sc2c1` [Example 85, (1R,2R)-2-((6-((6-(methylthio)-3H-imidazo[4,5-b]pyridin-3-yl)methyl)benzo[d]thiazol-2-yl)amino)cyclohexanol], for which the dissociation constant Kd was ≤ 100 nM in test [1], ≤ 50 nM in test [2] and ≤ 5 nM in test [4]. For the same molecule, in test [3] (setting [8]), the “Kinase specificity S(10)” value is reported as “B (0.01<B≤0.02)”. In addition, in test [5] (setting [9]), the IC50 was ≤ 50 nM.

In the case of `Cn1cc(-c2cn(Cc3ccc4nc(N[C@@H]5CCCC[C@H]5O)sc4c3)cn2)cn1` [Example 36, (1R,2R)-2-((6-((4-(1-methyl-1H-pyrazol-4-yl)-1H-imidazol-1-yl)methyl)benzo[d]thiazol-2-yl)amino)cyclohexanol], the equilibrium dissociation constant (Kd) is 500 to 2000 nM in test [1], > 2000 nM in test [2] and 5 to 20 nM in test [4]. The “Kinase specificity S(10)” value in test [3] (setting [8]) is “A (A≤0.01)”. For the same molecule, the half-inhibitory concentration (IC50) in test [5] (setting [9]) fell in the range of 50 to 200 nM.

As for `O=C1CCCCN1c1ccc2c(c1)ncn2Cc1ccc2nc(N[C@@H]3CCCC[C@H]3O)sc2c1` [Example 210, 1-(1-((2-(((1R,2R)-2-hydroxycyclohexyl)amino)benzo[d]thiazol-6-yl)methyl)-1H-benzo[d]imidazol-5-yl)piperidin-2-one], the dissociation constant (Kd) in test [1] (competition binding) was in the range of 500 to 2000 nM; in test [2] (competition binding) it was 500 to 2000 nM; in test [4] (competition binding), 20 to 50 nM. Further, the “Kinase specificity S(10)” value in test [3] (setting [6]) is on record as “A (A≤0.01)”. Besides, the IC50 in test [5] (setting [7]) was in the range of 200 to 500 nM.

On to `CS(=O)(=O)c1ccc2ncn(Cc3ccc4nc(N[C@@H]5CCCC[C@H]5O)sc4c3)c2n1` [Example 106, (1R,2R)-2-((6-((5-(methylsulfonyl)-3H-imidazo[4,5-b]pyridin-3-yl)methyl)benzo[d]thiazol-2-yl)amino)cyclohexanol], for which the figures for the dissociation constant (Kd) in test [1] (competition binding), in test [2] (competition binding) and in test [4] (competition binding) were 500 to 2000 nM, 500 to 2000 nM and 20 to 50 nM, respectively. The “Kinase specificity S(10)” value in test [3] (setting [6]) was “A (A≤0.01)”. In addition, the IC50 in test [5] (setting [7]) was > 500 nM.

With `COc1ccn2c(Cc3ccc4nc(N[C@@H]5CCCC[C@H]5O)sc4c3)cnc2c1` [Example 44, (1R,2R)-2-((6-((7-methoxyimidazo[1,2-a]pyridin-3-yl)methyl)benzo[d]thiazol-2-yl)amino)cyclohexanol], the Kd was in the range of 500 to 2000 nM in test [1], 500 to 2000 nM in test [2] and 5 to 20 nM in test [4]. In test [3] (setting [8]), the “Kinase specificity S(10)” value is “A (A≤0.01)”. In addition, in test [5] (setting [9]), the IC50 fell in the range of 50 to 200 nM.

Turning to `CNC(=O)c1cn(Cc2ccc3nc(N[C@@H]4CCCC[C@H]4O)sc3c2)cn1` [Example 37, 1-((2-(((1R,2R)-2-hydroxycyclohexyl)amino)benzo[d]thiazol-6-yl)methyl)-N-methyl-1H-imidazole-4-carboxamide], the figures for the Kd in test [1], in test [2] and in test [4] were > 2000 nM, > 2000 nM and > 50 nM, respectively. In test [3] (setting [8]), the “Kinase specificity S(10)” value is listed as “A (A≤0.01)”. For the same molecule, in test [5] (setting [9]), the concentration for half-maximal inhibition (IC50) was > 500 nM.
